Test results: the NIST ThermoML archive (doi:10.1016/j.fluid.2017.12.010)

Settings: Liquid, Vibrating tube method

CCCCCCCCCCCC [dodecane]
Settings	mass density [kg/m3]
283.29 K, 100 kPa	756
283.29 K, 1000 kPa	757
283.29 K, 3000 kPa	758
283.3 K, 5000 kPa	760
283.3 K, 10000 kPa	763
283.3 K, 30000 kPa	775
283.3 K, 40000 kPa	780
283.3 K, 50000 kPa	785
283.3 K, 60000 kPa	790
283.31 K, 20000 kPa	769
283.31 K, 70000 kPa	795
283.32 K, 80000 kPa	799
283.32 K, 90000 kPa	803
293.17 K, 100 kPa	749
293.18 K, 1000 kPa	750
293.19 K, 5000 kPa	753
293.19 K, 10000 kPa	756
293.19 K, 20000 kPa	763
293.19 K, 30000 kPa	769
293.19 K, 40000 kPa	774
293.19 K, 50000 kPa	780
293.19 K, 70000 kPa	789
293.19 K, 80000 kPa	794
293.19 K, 90000 kPa	798
293.19 K, 100000 kPa	802
293.2 K, 60000 kPa	785
303.04 K, 30000 kPa	762
303.04 K, 100000 kPa	797
303.05 K, 100 kPa	742
303.05 K, 1000 kPa	743
303.05 K, 5000 kPa	746
303.05 K, 20000 kPa	756
303.05 K, 50000 kPa	774
303.05 K, 60000 kPa	779
303.05 K, 70000 kPa	784
303.05 K, 80000 kPa	789
303.05 K, 90000 kPa	793
303.06 K, 10000 kPa	749
303.06 K, 40000 kPa	768
312.89 K, 100 kPa	736
312.89 K, 1000 kPa	737
312.9 K, 5000 kPa	740
312.9 K, 10000 kPa	744
312.9 K, 20000 kPa	751
312.9 K, 30000 kPa	757
312.9 K, 40000 kPa	763
312.9 K, 50000 kPa	769
312.9 K, 60000 kPa	774
312.9 K, 70000 kPa	780
312.9 K, 80000 kPa	784
312.9 K, 90000 kPa	789
312.9 K, 100000 kPa	793
322.83 K, 100 kPa	727
322.83 K, 1000 kPa	728
322.83 K, 5000 kPa	732
322.83 K, 10000 kPa	736
322.83 K, 20000 kPa	743
322.83 K, 30000 kPa	750
322.83 K, 40000 kPa	756
322.83 K, 50000 kPa	762
322.83 K, 60000 kPa	768
322.83 K, 70000 kPa	773
322.83 K, 80000 kPa	778
322.83 K, 90000 kPa	783
322.83 K, 100000 kPa	787
332.74 K, 100 kPa	720
332.74 K, 1000 kPa	721
332.74 K, 5000 kPa	725
332.74 K, 10000 kPa	729
332.74 K, 20000 kPa	737
332.74 K, 30000 kPa	744
332.74 K, 40000 kPa	750
332.74 K, 50000 kPa	757
332.74 K, 60000 kPa	762
332.74 K, 70000 kPa	768
332.74 K, 80000 kPa	773
332.74 K, 90000 kPa	778
332.75 K, 100000 kPa	782
342.67 K, 100 kPa	713
342.67 K, 1000 kPa	714
342.67 K, 5000 kPa	718
342.67 K, 10000 kPa	722
342.67 K, 20000 kPa	731
342.67 K, 30000 kPa	738
342.67 K, 40000 kPa	745
342.67 K, 50000 kPa	751
342.67 K, 60000 kPa	757
342.67 K, 69990 kPa	763
342.67 K, 80000 kPa	768
342.67 K, 90000 kPa	773
342.67 K, 100000 kPa	778
352.58 K, 100 kPa	707
352.58 K, 1000 kPa	708
352.58 K, 5000 kPa	712
352.58 K, 10000 kPa	716
352.58 K, 20000 kPa	725
352.58 K, 30000 kPa	733
352.58 K, 40000 kPa	740
352.58 K, 50000 kPa	747
352.58 K, 60000 kPa	753
352.58 K, 70000 kPa	759
352.58 K, 80000 kPa	764
352.58 K, 90000 kPa	769
352.58 K, 100000 kPa	774
362.48 K, 5000 kPa	704
362.48 K, 10000 kPa	709
362.48 K, 20000 kPa	718
362.48 K, 30000 kPa	726
362.48 K, 50000 kPa	741
362.48 K, 80000 kPa	759
362.48 K, 90000 kPa	764
362.49 K, 100 kPa	699
362.49 K, 1000 kPa	700
362.49 K, 40000 kPa	734
362.49 K, 60000 kPa	747
362.49 K, 70000 kPa	753
362.49 K, 100000 kPa	769
